Laboratory results as given in patent US7109190B2, “Carbacephem β-lactam antibiotics” (Trine Pharmaceuticals, Inc., priority 2003, dated 2006).
Values after ≈ are worked out from the molar mass of the structure shown.

System: MRSA COL
Assay: In vitro MIC by agar dilution against MRSA COL
Type: cell-based
Details: Staphylococcus aureus; MRSA COL isolate; read-out: MIC (μg/mL) MRSA COL
Text: (§1) The in vitro MIC for bacterial isolates may be obtained in the following manner: a test compound is incorporated into a series of two-fold dilutions in liquified Mueller-hinton agar. Upon solidification, a number of different bacterial strains are spot-inoculated onto the surface of the agar. […] The procedures used in these experiments are generally those standardized by the National Committee for Clinical Laboratory Standards (NCCLS), as set forth in the NCCLS publication entitled “Methods for Dilution Antimicrobial Susceptibility Tests (1991), which is incorporated by reference as if fully set forth herein. The following exemplified such a procedure although it is to be understood that modifications of the procedure may be implemented as required.
(§2) Aliquots of the test compounds are prepared in phosphate buffered saline (PBS) at pH approximately 7.2. Tween 20 or dimethylsulfoxide (DMSO) are added if necessary to solubilize the compound and vortexing, sonicating and gentle heating may also be employed. Typically, the concentration of the stock solution is 10× that of the highest compound concentration to be used. Serial two-fold dilutions are prepared down to the lowest concentration to be tested. Each compound concentration is tested in duplicate. A control plate using a reference drug such as cefotaxime, vancomycin or imipenem is used as a postive control. A negative control plate containing no drug or compound is also prepared.
(§3) A few isolated colonies are retrieved from a pure culture prepared on agar plates and transferred to a tube of nutrient broth and allowed to grow at 35–36° C. until log-phase growth is achieved, usually about 4–6 hours. The broth is then added dropwise to PBS until the turbidity of the suspension matches a 0.5 McFarland standard which is equal to approximately 10^8 cfu/ml.
(§4) The test plates containing the compound dilutions and the control plates are then inoculated with the PBS suspension. The plates are then incubated for 16–20 hours at 35–36° C. The plates are then observed to determine which concentration of the test compound is the MIC.
(§5) It is expected that the compounds will be equally, if not more, potent against other resistant strains of bacteria as well as bacteria which are susceptible to current clinical antibiotics. The range of utility of the compounds herein can easily be established by those skilled in the art using the disclosures herein and all bacteria within the useful range are within the scope of this invention.

MIC [µg/mL] | SMILES
1 (≈ 1.71 µM) | NCCSCc1cnccc1SC1=C(C(=O)O)N2C(=O)C(NC(=O)/C(=N\O)c3nc(N)sc3Cl)C2CC1 (stereo not drawn)
2 (≈ 3.98 µM) | Nc1nc(/C(=N/O)C(=O)NC2C(=O)N3C(C(=O)O)=C(Sc4nncs4)CCC23)c(Cl)s1 (stereo not drawn)
1 (≈ 1.71 µM) | NCCSCc1ncccc1SC1=C(C(=O)O)N2C(=O)C(NC(=O)/C(=N\O)c3nc(N)sc3Cl)C2CC1 (stereo not drawn)
1 (≈ 1.93 µM) | Nc1nnc(SC2=C(C(=O)O)N3C(=O)C(NC(=O)/C(=N\O)c4nc(N)sc4Cl)C3CC2)s1 (stereo not drawn)

System: MRSA 76
Assay: In vitro MIC by agar dilution against MRSA 76
Type: cell-based
Details: Staphylococcus aureus; MRSA 76 isolate; read-out: MIC (μg/mL) MRSA 76
Text: as §1, §2, §3, §4, §5

MIC [µg/mL] | SMILES
1 (≈ 1.71 µM) | NCCSCc1cnccc1SC1=C(C(=O)O)N2C(=O)C(NC(=O)/C(=N\O)c3nc(N)sc3Cl)C2CC1 (stereo not drawn)
2 (≈ 3.98 µM) | Nc1nc(/C(=N/O)C(=O)NC2C(=O)N3C(C(=O)O)=C(Sc4nncs4)CCC23)c(Cl)s1 (stereo not drawn)
2 (≈ 3.42 µM) | NCCSCc1ncccc1SC1=C(C(=O)O)N2C(=O)C(NC(=O)/C(=N\O)c3nc(N)sc3Cl)C2CC1 (stereo not drawn)
2 (≈ 3.87 µM) | Nc1nnc(SC2=C(C(=O)O)N3C(=O)C(NC(=O)/C(=N\O)c4nc(N)sc4Cl)C3CC2)s1 (stereo not drawn)

System: human serum
Assay: Human serum binding (ultrafiltration, HPLC)
Type: in vitro ADME
Details: not given
Description: The following procedure may be used to evaluate serum binding: compounds are incubated in serum for 10 min at 37° C. in a shaking water bath. Then a serum ultrafiltrate is obtained by centrifugation of ultra-filtration units (Amicon Centrifree) for, say, 20 minutes at 25° C. Compound content in the ultrafiltrate is quantified by HPLC using standards prepared in blank ultra-filtrate undergoing similar processing.
as §5

Human Serum Binding [%] | SMILES
74.5 | NCCSCc1cnccc1SC1=C(C(=O)O)N2C(=O)C(NC(=O)/C(=N\O)c3nc(N)sc3Cl)C2CC1 (stereo not drawn)
66.9 | Nc1nc(/C(=N/O)C(=O)NC2C(=O)N3C(C(=O)O)=C(Sc4nncs4)CCC23)c(Cl)s1 (stereo not drawn)
89.4 | NCCSCc1ncccc1SC1=C(C(=O)O)N2C(=O)C(NC(=O)/C(=N\O)c3nc(N)sc3Cl)C2CC1 (stereo not drawn)
68.0 | Nc1nnc(SC2=C(C(=O)O)N3C(=O)C(NC(=O)/C(=N\O)c4nc(N)sc4Cl)C3CC2)s1 (stereo not drawn)

System: MRSA
Assay: not given
Details: MRSA potency, background prior-art compounds; cited from earlier work

SMILES | MIC [µg/mL]
Nc1nc(/C(=N/OCCF)C(=O)N[C@@H]2C(=O)N3C(C(=O)O)=C(Sc4nncs4)CCC23)cs1 (stereo partly drawn) [compound (2)] | 2 (≈ 3.89 µM)
Nc1nc(/C(=N/OCCF)C(=O)N[C@@H]2C(=O)N3C(C(=O)O)=C(Sc4nc5cnccc5s4)CCC23)cs1 (stereo partly drawn) [compound (4)] | 64 (≈ 114 µM)
Nc1nc(/C(=N/OCCF)C(=O)N[C@@H]2C(=O)N3C(C(=O)O)=C(Sc4nc5ccc([N+](=O)[O-])cc5s4)CCC23)cs1 (stereo partly drawn) [compound (3)] | 4 (≈ 6.58 µM)

System: serum protein
Assay: not given
Details: background prior-art compounds; cited from earlier work

SMILES | serum binding [%]
Nc1nc(/C(=N/OCCF)C(=O)N[C@@H]2C(=O)N3C(C(=O)O)=C(Sc4nncs4)CCC23)cs1 (stereo partly drawn) [compound (2)] | > 99.2
Nc1nc(/C(=N/OCCF)C(=O)N[C@@H]2C(=O)N3C(C(=O)O)=C(Sc4nc5cnccc5s4)CCC23)cs1 (stereo partly drawn) [compound (4)] | 36
Nc1nc(/C(=N/OCCF)C(=O)N[C@@H]2C(=O)N3C(C(=O)O)=C(Sc4nc5ccc([N+](=O)[O-])cc5s4)CCC23)cs1 (stereo partly drawn) [compound (3)] | 99.6
